ChEMBL document CHEMBL1141575, “Preparation and in vitro biological evaluation of tetrapyrrole ethanolamide derivatives as potential anticancer agents” (Bioorg Med Chem Lett, 2008)

Key:
[1] = test system: HeLa; experiment: Survival of human HeLa cells at 0.01 uM under deem light after 96 hrs by MTT assay relative to control; format: functional; conditions: read-out: Survival
[2] = test system: HeLa; experiment: Survival of human HeLa cells at 0.1 uM under deem light after 96 hrs by MTT assay relative to control; format: functional; conditions: read-out: Survival
[3] = test system: HeLa; experiment: Survival of human HeLa cells at 10 uM under deem light after 96 hrs by MTT assay relative to control; format: functional; conditions: read-out: Survival
[4] = test system: HeLa; experiment: Survival of human HeLa cells at 50 uM under deem light after 96 hrs by MTT assay relative to control; format: functional; conditions: read-out: Survival
[5] = test system: HeLa; experiment: Survival of human HeLa cells at 100 uM under deem light after 96 hrs by MTT assay relative to control; format: functional; conditions: read-out: Survival
[6] = test system: NCI-H69; experiment: Survival of human H69 cells at 0.01 uM under deem light after 96 hrs by MTT assay relative to control; format: functional; conditions: NCI-H69, 96 h, read-out: Survival
[7] = test system: NCI-H69; experiment: Survival of human H69 cells at 0.1 uM under deem light after 96 hrs by MTT assay relative to control; format: functional; conditions: NCI-H69, 96 h, read-out: Survival
[8] = test system: NCI-H69; experiment: Survival of human H69 cells at 10 uM under deem light after 96 hrs by MTT assay relative to control; format: functional; conditions: NCI-H69, 96 h, read-out: Survival
[9] = test system: NCI-H69; experiment: Survival of human H69 cells at 50 uM under deem light after 96 hrs by MTT assay relative to control; format: functional; conditions: NCI-H69, 96 h, read-out: Survival
[10] = test system: NCI-H69; experiment: Survival of human H69 cells at 100 uM under deem light after 96 hrs by MTT assay relative to control; format: functional; conditions: NCI-H69, 96 h, read-out: Survival
[11] = Survival of human H209 cells at 0.01 uM under deem light after 96 hrs by MTT assay relative to control; format: functional; conditions: NCI-H209, 96 h, read-out: Survival
[12] = Survival of human H209 cells at 0.1 uM under deem light after 96 hrs by MTT assay relative to control; format: functional; conditions: NCI-H209, 96 h, read-out: Survival
[13] = Survival of human H209 cells at 10 uM under deem light after 96 hrs by MTT assay relative to control; format: functional; conditions: NCI-H209, 96 h, read-out: Survival
[14] = Survival of human H209 cells at 50 uM under deem light after 96 hrs by MTT assay relative to control; format: functional; conditions: NCI-H209, 96 h, read-out: Survival
[15] = Survival of human H209 cells at 100 uM under deem light after 96 hrs by MTT assay relative to control; format: functional; conditions: NCI-H209, 96 h, read-out: Survival
[16] = Survival of human 2780.9S cells at 0.01 uM under deem light after 96 hrs by MTT assay relative to control; format: functional; conditions: read-out: Survival
[17] = Survival of human 2780.9S cells at 0.1 uM under deem light after 96 hrs by MTT assay relative to control; format: functional; conditions: read-out: Survival
[18] = Survival of human 2780.9S cells at 10 uM under deem light after 96 hrs by MTT assay relative to control; format: functional; conditions: read-out: Survival
[19] = Survival of human 2780.9S cells at 50 uM under deem light after 96 hrs by MTT assay relative to control; format: functional; conditions: read-out: Survival
[20] = Survival of human 2780.9S cells at 100 uM under deem light after 96 hrs by MTT assay relative to control; format: functional; conditions: read-out: Survival
[21] = Survival of human MDA-MB cells at 0.01 uM under deem light after 96 hrs by MTT assay relative to control; format: functional; conditions: read-out: Survival
[22] = Survival of human MDA-MB cells at 0.1 uM under deem light after 96 hrs by MTT assay relative to control; format: functional; conditions: read-out: Survival
[23] = Survival of human MDA-MB cells at 10 uM under deem light after 96 hrs by MTT assay relative to control; format: functional; conditions: read-out: Survival
[24] = Survival of human MDA-MB cells at 50 uM under deem light after 96 hrs by MTT assay relative to control; format: functional; conditions: read-out: Survival
[25] = Survival of human MDA-MB cells at 100 uM under deem light after 96 hrs by MTT assay relative to control; format: functional; conditions: read-out: Survival
[26] = test system: SiHa; experiment: Cytotoxicity against human SIHA cells under deem light after 96 hrs by MTT assay; format: functional, cell-based
[27] = test system: Raji; experiment: Cytotoxicity against human Raji cells under deem light after 96 hrs by MTT assay; format: functional, cell-based
[28] = Cytotoxicity against human MDA-MB cells under deem light after 96 hrs by MTT assay; format: functional, cell-based
[29] = test system: K562; experiment: Cytotoxicity against human K562 cells under deem light after 96 hrs by MTT assay; format: functional, cell-based; conditions: K562, 96 h
[30] = test system: HeLa; experiment: Cytotoxicity against human HeLa cells under deem light after 96 hrs by MTT assay; format: functional, cell-based
[31] = test system: NCI-H69; experiment: Cytotoxicity against human H69 cells under deem light after 96 hrs by MTT assay; format: functional, cell-based; conditions: NCI-H69, 96 h
[32] = test system: Daudi; experiment: Cytotoxicity against human Daudi cells under deem light after 96 hrs by MTT assay; format: functional, cell-based
[33] = Cytotoxicity against human 2780.9S cells under deem light after 96 hrs by MTT assay; format: functional, cell-based
[34] = Photohemolysis in human RBC in absence of light; format: ADME, cell-based; conditions: erythrocyte
[35] = test system: SiHa; experiment: Survival of human SIHA cells at 0.1 uM under deem light after 96 hrs by MTT assay relative to control; format: functional; conditions: read-out: Survival
[36] = test system: SiHa; experiment: Survival of human SIHA cells at 10 uM under deem light after 96 hrs by MTT assay relative to control; format: functional; conditions: read-out: Survival
[37] = test system: SiHa; experiment: Survival of human SIHA cells at 50 uM under deem light after 96 hrs by MTT assay relative to control; format: functional; conditions: read-out: Survival
[38] = test system: K562; experiment: Survival of human K562 cells at 0.01 uM under deem light after 96 hrs by MTT assay relative to control; format: functional; conditions: K562, 96 h, read-out: Survival
[39] = test system: K562; experiment: Survival of human K562 cells at 0.1 uM under deem light after 96 hrs by MTT assay relative to control; format: functional; conditions: K562, 96 h, read-out: Survival
[40] = test system: K562; experiment: Survival of human K562 cells at 10 uM under deem light after 96 hrs by MTT assay relative to control; format: functional; conditions: K562, 96 h, read-out: Survival
[41] = test system: K562; experiment: Survival of human K562 cells at 50 uM under deem light after 96 hrs by MTT assay relative to control; format: functional; conditions: K562, 96 h, read-out: Survival
[42] = test system: K562; experiment: Survival of human K562 cells at 100 uM under deem light after 96 hrs by MTT assay relative to control; format: functional; conditions: K562, 96 h, read-out: Survival
[43] = test system: Raji; experiment: Survival of human Raji cells at 0.01 uM under deem light after 96 hrs by MTT assay relative to control; format: functional; conditions: read-out: Survival
[44] = test system: Raji; experiment: Survival of human Raji cells at 0.1 uM under deem light after 96 hrs by MTT assay relative to control; format: functional; conditions: read-out: Survival
[45] = test system: Raji; experiment: Survival of human Raji cells at 10 uM under deem light after 96 hrs by MTT assay relative to control; format: functional; conditions: read-out: Survival
[46] = test system: Raji; experiment: Survival of human Raji cells at 50 uM under deem light after 96 hrs by MTT assay relative to control; format: functional; conditions: read-out: Survival
[47] = test system: Raji; experiment: Survival of human Raji cells at 100 uM under deem light after 96 hrs by MTT assay relative to control; format: functional; conditions: read-out: Survival

Which viability at 0.01 µM [1] does the source give for COc1cccc2c1C(=O)c1c(O)c3c(c(O)c1C2=O)C[C@@](O)(C(=O)CO)C[C@@H]3O[C@H]1C[C@H](N)[C@H](O)[C@H](C)O1 [DOXORUBICIN] here?
Its viability at 0.01 µM is 97.5%.

And the viability at 0.1 µM [2]?
The viability at 0.1 µM was 81.4%.

What about the viability at 10 µM [3] of the same compound?
Its viability at 10 µM is 20.2%.

What about the viability at 50 µM [4] of the same compound?
Its viability at 50 µM is 7%.

And the viability at 100 µM [5]?
Its viability at 100 µM is 6.1%.

And the viability at 0.01 µM [6]?
Its viability at 0.01 µM is 86.5%.

And the viability at 0.1 µM [7]?
Its viability at 0.1 µM is 82.2%.

What about the viability at 10 µM [8] of the same compound?
The viability at 10 µM was 37.7%.

And the viability at 50 µM [9]?
The viability at 50 µM was 16.8%.

And the viability at 100 µM [10]?
Its viability at 100 µM is 6.6%.

What about the viability at 0.01 µM [11] of the same compound?
Its viability at 0.01 µM is 85.6%.

What about the viability at 0.1 µM [12] of the same compound?
The viability at 0.1 µM was 85.6%.

What about the viability at 10 µM [13] of the same compound?
The viability at 10 µM was 23.1%.

And the viability at 50 µM [14]?
Its viability at 50 µM is 5.8%.

What about the viability at 100 µM [15] of the same compound?
The viability at 100 µM was 1.5%.

And the viability at 0.01 µM [16]?
The viability at 0.01 µM was 108%.

What about the viability at 0.1 µM [17] of the same compound?
The viability at 0.1 µM was 105%.

What about the viability at 10 µM [18] of the same compound?
The viability at 10 µM was 56.9%.

What about the viability at 50 µM [19] of the same compound?
The viability at 50 µM was 13.8%.

What about the viability at 100 µM [20] of the same compound?
Its viability at 100 µM is 7.4%.

What about the viability at 0.01 µM [21] of the same compound?
The viability at 0.01 µM was 121%.

And the viability at 0.1 µM [22]?
The viability at 0.1 µM was 96.8%.

And the viability at 10 µM [23]?
The viability at 10 µM was 50.5%.

What about the viability at 50 µM [24] of the same compound?
The viability at 50 µM was 11.8%.

And the viability at 100 µM [25]?
Its viability at 100 µM is 5%.

And the IC50 [26]?
The IC50 was 500 nM.

What about the IC50 [27] of the same compound?
The IC50 was 2000 nM.

And the IC50 [28]?
The IC50 was 9000 nM.

And the IC50 [29]?
Its IC50 is 1000 nM.

And the IC50 [30]?
Its IC50 is 2000 nM.

And the IC50 [31]?
The IC50 was 3000 nM.

And the IC50 [32]?
Its IC50 is 300 nM.

And the IC50 [33]?
Its IC50 is 15000 nM.

What about the Activity [34] of the same compound?
The Activity was “Non-toxic”.

What about the viability at 0.1 µM [35] of the same compound?
Its viability at 0.1 µM is 72.2%.

What about the viability at 10 µM [36] of the same compound?
The viability at 10 µM was 4.4%.

And the viability at 50 µM [37]?
Its viability at 50 µM is 3.5%.

What about the viability at 0.01 µM [38] of the same compound?
Its viability at 0.01 µM is 116%.

And the viability at 0.1 µM [39]?
The viability at 0.1 µM was 100%.

What about the viability at 10 µM [40] of the same compound?
Its viability at 10 µM is 22.1%.

And the viability at 50 µM [41]?
Its viability at 50 µM is 9.5%.

What about the viability at 100 µM [42] of the same compound?
Its viability at 100 µM is 7.5%.

And the viability at 0.01 µM [43]?
Its viability at 0.01 µM is 110%.

What about the viability at 0.1 µM [44] of the same compound?
Its viability at 0.1 µM is 106%.

And the viability at 10 µM [45]?
The viability at 10 µM was 8.6%.

What about the viability at 50 µM [46] of the same compound?
Its viability at 50 µM is 2.5%.

What about the viability at 100 µM [47] of the same compound?
The viability at 100 µM was 1.1%.
